Results published in article PMC4457802 (PLoS ONE, 2015).
Where two headings read alike, the source gives them in different places.

Tests used:
[1] = tested on: S. pneumoniae (30 clinical isolates); format: cell-based, Streptococcus pneumoniae; settings: for MIC S. pneumoniae (30 clinical isolates), in parentheses: numbers in parentheses are micromolar concentrations; for MIC S. pneumoniae (30 clinical isolates): broth microdilution, CAMHB, 20-24hr, 37°C, 5% CO2, lowest concentration that completely inhibits growth
Text: (§1) Thirty (30) Pneumococcal clinical isolates were obtained from University of Malaya Medical Centre (UMMC). For broad-spectrum activity of AMPs, E. coli ATCC 25922, Staphylococcus aureus ATCC 25923, P. aeruginosa ATCC 15442, Acinetobacter baumanii ATCC 15308, and one clinical isolate of each methicillin resistant S. aureus (MRSA), […], citrobacter spp., and K. pneumoniae were used in this study.
(§2) The minimum inhibitory concentration (MIC) of the peptides against 30 pneumococcal isolates was determined by broth microdilution protocol as indicated by the CLSI guidelines (Clinical and Laboratory Standards Institute). Briefly, bacterial strains were grown for 18–24 hr at 37°C under 5% CO2. Direct suspension of the colonies were made in cationically-adjusted Müeller-Hinton broth (CAMHB) and adjusted to OD 625 0.08–0.1 which corresponds to 1 ~ 2 x10^8 CFU/ml followed by serial ten-fold dilutions to give 1x10^6 CFU/ml. 50μl of bacterial suspension were added to 96-well round bottom microtiter plates containing equal volume of peptides at different concentrations (1.95, 3.90, 7.81, 15.62, 31.25, 62.5, 125, 250μg/ml) and the 96-well plates were incubated for 20-24hr at 37°C in the presence of 5% CO2.

[2] = tested on: Acinetobacter baumanii ATCC 15308; format: cell-based; settings: numbers in parentheses are micromolar concentrations
Text: as §1, §2

E. coli ATCC 25922 = format: cell-based; settings: numbers in parentheses are micromolar concentrations
Text: as §1, §2

Enterococcus cloacae = format: cell-based; settings: numbers in parentheses are micromolar concentrations
Text: as §1, §2

K. pneumoniae = format: cell-based; settings: numbers in parentheses are micromolar concentrations
Text: as §1, §2

[3] = tested on: Methicillin resistant S. aureus (MRSA); format: cell-based; settings: numbers in parentheses are micromolar concentrations
Text: as §1, §2

P. aeruginosa ATCC 15442 = format: cell-based; settings: numbers in parentheses are micromolar concentrations
Text: as §1, §2

citrobacter spp = format: cell-based; settings: numbers in parentheses are micromolar concentrations
Text: as §1, §2

S. aureus ATCC 25923 = format: cell-based, Staphylococcus aureus; settings: for MIC S. aureus ATCC 25923, in parentheses: numbers in parentheses are micromolar concentrations
Text: as §1, §2

Streptococcus pneumoniae = assay: Time killing assay; format: cell-based; settings: 1×MIC; for time to completely kill 10^6 CFU/ml of S. pneumoniae / time to eradicate susceptible pneumococcal isolate: MHB, 37°C, triplicate; for time to completely kill 10^6 CFU/ml of S. pneumoniae: sampled every 30 min to 240 min; for time to totally eliminate resistant strain: failed up to 240 min of treatment
Procedure: The bactericidal activities of peptides were performed as described previously. […] 10μl of bacterial suspensions were removed at various time intervals (30, 60, 90, 120, 150, 180, 210, and 240 min), serially diluted in PBS and plated onto Columbia agar with 5% sheep blood for 20-24hr at 37°C in the presence of 5% CO2 to obtain viable colonies. Erythromycin and ceftriaxone were used as positive control and the assay was performed in triplicate.

Compound	MIC S. pneumoniae (30 clinical isolates), in parentheses [1]	MIC Acinetobacter baumanii ATCC 15308, in parentheses [2]	MIC E. coli ATCC 25922, in parentheses (E. coli ATCC 25922)	MIC Enterococcus cloacae, in parentheses (Enterococcus cloacae)	MIC K. pneumoniae, in parentheses (K. pneumoniae)	MIC MRSA, in parentheses [3]	MIC P. aeruginosa ATCC 15442, in parentheses (P. aeruginosa ATCC 15442)	MIC citrobacter spp, in parentheses (citrobacter spp)	MIC S. aureus ATCC 25923, in parentheses (S. aureus ATCC 25923)	MIC S. pneumoniae (30 clinical isolates) [1]	MIC S. pneumoniae (30 clinical isolates), in parentheses ([1]; unit of the source corrected)	MIC E. coli ATCC 25922, in parentheses (E. coli ATCC 25922; unit of the source corrected)	MIC MRSA, in parentheses ([3]; unit of the source corrected)	MIC P. aeruginosa ATCC 15442, in parentheses (P. aeruginosa ATCC 15442; unit of the source corrected)	MIC S. aureus ATCC 25923, in parentheses (S. aureus ATCC 25923; unit of the source corrected)	time to completely kill 10^6 CFU/ml of S. pneumoniae (Streptococcus pneumoniae)	time to totally eliminate resistant strain (Streptococcus pneumoniae)	time to eradicate susceptible pneumococcal isolate (Streptococcus pneumoniae)	MIC S. aureus ATCC 25923 (S. aureus ATCC 25923; broth microdilution)
FLGGLIKRVPAMICAVRKKC-OH [RN3, ranalexin analog]	>250 (>113) micromolar	>250 (>113) micromolar	>250 (>113) micromolar	>250 (>113) micromolar	>250 (>113) micromolar	>250 (>113) micromolar	>250 (>113) micromolar	>250 (>113) micromolar	>250 (>113) micromolar	–	–	–	–	–	–	–	–	–	–
RRPWRWPWWPWRR-NH2 [IN2, indolicidin analog]	–	>250 (>123) micromolar	–	>250 (>123) micromolar	>250 (>123) micromolar	–	–	>250 (>123) micromolar	–	31.25 to 62.5 µg/mL	31.2 to 62.5 µg/mL	31.2 µg/mL	31.2 µg/mL	31.2 µg/mL	31.2 µg/mL	210 min	–	–	–
RRPWRWPRWPWRR-NH2 [IN3, indolicidin analog]	–	>250 (>125) micromolar	–	>250 (>125) micromolar	>250 (>125) micromolar	–	–	>250 (>125) micromolar	–	–	62.5 µg/mL	31.2 µg/mL	62.5 µg/mL	31.2 µg/mL	31.2 µg/mL	150 min	–	–	–
LLPWKWPWWKWRR-NH2 [IN1, indolicidin analog]	–	>250 (129) micromolar	–	>250 (>129) micromolar	>250 (>129) micromolar	–	–	>250 (>129) micromolar	–	31.25 to 62.5 µg/mL	31.2 to 62.5 µg/mL	31.2 µg/mL	31.2 µg/mL	31.2 µg/mL	31.2 µg/mL	210 min	–	–	–
CO/N=C(\C(=O)N[C@@H]1C(=O)N2C(C(=O)O)=C(CSc3nc(=O)c(=O)[nH]n3C)CS[C@H]12)c1csc(N)n1 [ceftriaxone, reference compound]	–	–	–	–	–	–	–	–	–	–	–	–	–	–	–	–	> 240 min	150 min	–
FLGGLIKPVPAMICAVRKKC-OH [RN2, ranalexin analog]	>250 (>116) micromolar	>250 (>116) micromolar	>250 (>116) micromolar	>250 (>116) micromolar	>250 (>116) micromolar	>250 (>116) micromolar	>250 (>116) micromolar	>250 (>116) micromolar	>250 (>116) micromolar	–	–	–	–	–	–	–	–	–	–
RLPWRWPRRPWRR-NH2 [IN4, indolicidin analog]	–	>250 (>130.4) micromolar	–	>250 (>130.4) micromolar	>250 (>130.4) micromolar	–	–	>250 (>130.4) micromolar	–	> 250 µg/mL	250 µg/mL	250 µg/mL	250 µg/mL	125 µg/mL	–	–	–	–	125 µg/mL
FLGGLIKPWWPWRR-NH2 [RN7-IN7, hybrid peptide of ranalexin and indolicidin]	–	125 (69) micromolar	–	>250 (>138) micromolar	>250 (>138) micromolar	–	–	>250 (>138) micromolar	–	31.25 to 62.5 µg/mL	31.2 to 62.5 µg/mL	31.2 µg/mL	31.2 µg/mL	62.5 µg/mL	31.2 µg/mL	120 min	–	–	–
FLGGLIKRPPAMICAVRKKC-OH [RN4, ranalexin analog]	>250 (>113) micromolar	>250 (>113) micromolar	>250 (>113) micromolar	>250 (>113) micromolar	>250 (>113) micromolar	>250 (>113) micromolar	>250 (>113) micromolar	>250 (>113) micromolar	>250 (>113) micromolar	–	–	–	–	–	–	–	–	–	–
FLGGLIKIVPAMICAVRKKC-OH [RN1, ranalexin analog]	–	>250 (>115.7) micromolar	–	>250 (>115.7) micromolar	>250 (>115.7) micromolar	–	>250 (>115.7) micromolar	>250 (>115.7) micromolar	–	–	250 µg/mL	250 µg/mL	250 µg/mL	–	125 µg/mL	–	–	–	–
CC[C@H]1OC(=O)[C@H](C)[C@@H](O[C@H]2C[C@@](C)(OC)[C@@H](O)[C@H](C)O2)[C@H](C)[C@@H](O[C@@H]2O[C@H](C)C[C@H](N(C)C)[C@H]2O)[C@](C)(O)C[C@@H](C)C(=O)[C@H](C)[C@@H](O)[C@]1(C)O [erythromycin, reference compound]	–	–	–	–	–	–	–	–	–	–	–	–	–	–	–	–	> 240 min	120 min	–
